Each structure is given as a SMILES string. Where two headings read alike, the source gives them in different places.

The values that follow come from US20240109853A1 (Shanghai Yao Yuan Biotechnology Co., Ltd., priority 2020, published 2024).

One assay deals with ALPK1 (Homo sapiens (Human), UniProt Q96QP1). The assay is described as follows: ALPK1 in vitro kinase assay (HTRF of TIFA phosphorylation). The assay is classed as biochemical. On the technique in general: Time-resolved FRET reads energy transfer from a long-lived donor to a nearby acceptor.
ALPK1, sequence (Q96QP1 whole entry): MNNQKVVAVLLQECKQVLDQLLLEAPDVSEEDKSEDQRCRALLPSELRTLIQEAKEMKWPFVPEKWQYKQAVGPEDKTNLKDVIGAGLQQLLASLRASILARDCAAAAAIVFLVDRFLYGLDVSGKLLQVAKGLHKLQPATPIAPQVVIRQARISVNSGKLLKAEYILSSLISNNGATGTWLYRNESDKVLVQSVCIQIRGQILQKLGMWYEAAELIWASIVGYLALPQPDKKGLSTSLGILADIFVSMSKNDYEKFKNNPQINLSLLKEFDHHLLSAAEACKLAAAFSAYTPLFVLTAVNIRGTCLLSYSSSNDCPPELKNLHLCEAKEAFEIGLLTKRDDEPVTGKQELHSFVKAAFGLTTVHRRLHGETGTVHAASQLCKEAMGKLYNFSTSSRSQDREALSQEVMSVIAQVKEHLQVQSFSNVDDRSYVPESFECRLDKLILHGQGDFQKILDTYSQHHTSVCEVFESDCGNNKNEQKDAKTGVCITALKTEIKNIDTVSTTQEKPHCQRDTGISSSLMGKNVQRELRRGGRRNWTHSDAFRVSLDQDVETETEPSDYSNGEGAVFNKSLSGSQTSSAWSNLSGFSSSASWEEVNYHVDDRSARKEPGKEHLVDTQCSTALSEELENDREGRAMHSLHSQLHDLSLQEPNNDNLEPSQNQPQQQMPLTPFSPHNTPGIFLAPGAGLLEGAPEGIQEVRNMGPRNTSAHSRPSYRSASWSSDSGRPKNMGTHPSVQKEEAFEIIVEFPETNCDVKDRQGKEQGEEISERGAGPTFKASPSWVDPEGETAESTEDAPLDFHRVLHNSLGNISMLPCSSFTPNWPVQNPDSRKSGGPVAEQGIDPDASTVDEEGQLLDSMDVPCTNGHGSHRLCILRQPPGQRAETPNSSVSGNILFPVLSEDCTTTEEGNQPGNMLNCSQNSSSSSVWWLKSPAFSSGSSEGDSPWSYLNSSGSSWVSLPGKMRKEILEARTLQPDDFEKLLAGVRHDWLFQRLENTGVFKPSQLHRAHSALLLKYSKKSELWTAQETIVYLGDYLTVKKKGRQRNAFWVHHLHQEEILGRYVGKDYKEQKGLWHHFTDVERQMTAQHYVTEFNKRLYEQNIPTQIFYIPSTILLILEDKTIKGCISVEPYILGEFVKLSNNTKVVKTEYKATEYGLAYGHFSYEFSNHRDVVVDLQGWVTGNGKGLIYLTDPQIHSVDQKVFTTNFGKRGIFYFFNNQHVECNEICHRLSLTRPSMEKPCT
In assay [1] the test system is ALPK1-dependent NFκB reporter gene activation in HEK293 cells stably expressing an NF-kB reporter (G9 cells). Put plainly: NFκB gene reporter alkaline phosphatase assay. In kind it is cell-based. The note with it: read-out: NFkB assay IC50. The essentials: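 Read-out: chromogenic pNPP turnover by NF-kB-driven alkaline phosphatase in G9 cells (HEK293, stable reporter). Compound pre-incubation 30 min before agonist D-glycero-D-manno-6-fluoro-heptose-1β-S-ADP. IC50 by four-parameter logistic regression.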

As usually defined, the IC50 is the midpoint of a concentration-inhibition curve. In the case of `COc1ccc(C(C)(C)c2csc(NC(=O)NCc3ccc(N(C)CCO)nc3)n2)cc1` [Example A023, 1-((6-((2-hydroxyethyl)(methyl)a-mino)pyridin-3-yl)methyl)-3-(4-(2-(4-methoxyphenyl)propan-2-yl)thiazol-2-yl)urea], the 50% inhibitory concentration (IC50) stood at 229 nM against ALPK1 and 1320 nM in assay [1] (Homo sapiens, HEK293).
With `COc1ccc(C(C)(C)c2csc(NC(=O)NCc3ccc(N4CCC(N)C4)nc3)n2)cc1` (stereo not drawn) [Example A186, 1-((6-(3-aminopyrrolidin-1-yl)pyridin-3-yl)methyl)-3-(4-(2-(4-methoxyphenyl)propan-2-yl)thiazol-2-yl)urea], the concentration for half-maximal inhibition (IC50) was 19 nM on ALPK1 and 1550 nM in assay [1].
As to `CC(C)Oc1cc(CNC(=O)Nc2nc(C(C)(C)c3ccc(Br)cc3)cs2)ccc1N1CCNCC1` [Example A221, 1-(4-(2-(4-bromophenyl)propan-2-yl)thiazol-2-yl)-3-(3-isopropoxy-4-(piperazin-1-yl)benzyl)urea], the half-maximal inhibitory concentration (IC50) against ALPK1 was 144 nM; in assay [1] (Homo sapiens, HEK293), 2380 nM.
On the same counts, the results for `CNS(=O)(=O)CCCNC(=O)Nc1nc(C(C)(C)c2ccc(OC)cc2)cs1` [Example A148, 3-(3-(4-(2-(4-methoxyphenyl)propan-2-yl)thiazol-2-yl)ureido)-N-methylpropane-1-sulfonamide] are 45 nM and 850 nM.
Take `C#C[C@@](C)(c1ccc(OC)cc1)c1csc(NC(=O)N2CC(CO)C2)n1` [Example A256, (S)-3-(hydroxymethyl)-N-(4-(2-(4-methoxyphenyl)but-3-yn-2-yl)thiazol-2-yl)azetidine-1-carboxamide]: the concentration for half-maximal inhibition (IC50) is 273 nM at ALPK1 and 14300 nM in assay [1] (Homo sapiens, HEK293).
As to `C#CC(C)(c1ccc(Cl)cc1)c1csc(NC(=O)N(C)CCO)n1` (stereo not drawn) [Example A254, 3-(4-(2-(4-chlorophenyl)but-3-yn-2-yl)thiazol-2-yl)-1-(2-hydroxyethyl)-1-methylurea], the concentration for half-maximal inhibition (IC50) against ALPK1 amounted to 548 nM; in assay [1] (Homo sapiens, HEK293) it was 2070 nM.
On the same counts, the results for `CC(C)(c1ccc(Br)c(F)c1)c1csc(NC(=O)NCc2cnc(N3CCNCC3)nc2)n1` [Example A196, 1-(4-(2-(4-bromo-3-fluorophenyl)propan-2-yl)thiazol-2-yl)-3-((2-(piperazin-1-yl)pyrimidin-5-yl)methyl)urea] are 76 nM and 3340 nM.
Regarding `CC1CN(c2ccc(CNC(=O)Nc3nc(C(C)(C)c4ccc(Br)cc4)cs3)cc2)CCN1` (stereo not drawn) [Example A194, 1-(4-(2-(4-bromophenyl)propan-2-yl)thiazol-2-yl)-3-(4-(3-methylpiperazin-1-yl)benzyl)urea], the IC50 is 172 nM against ALPK1 and 3710 nM in assay [1] (Homo sapiens, HEK293).
Consider `COc1ccc(C(C)(C)c2csc(NC(=O)NCCCS(N)(=O)=O)n2)cc1` [Example A138, 3-(3-(4-(2-(4-methoxyphenyl)propan-2-yl)thiazol-2-yl)ureido)propane-1-sulfonamide], for which the half-inhibitory concentration (IC50) at ALPK1 was found to be 97 nM; in assay [1] (Homo sapiens, HEK293), 2380 nM.
As for `CNC(=O)c1cc(CNC(=O)Nc2nc(C(C)(C)c3ccc(OC)cc3)cs2)ccc1N1CCNCC1` [Example A065, 5-((3-(4-(2-(4-methoxyphenyl)propan-2-yl)thiazol-2-yl)ureido)methyl)-N-methyl-2-(piperazin-1-yl)benzamide], the IC50 against ALPK1 was determined as 30 nM; in assay [1] (Homo sapiens, HEK293) it was 4440 nM.
On the same counts, the results for `CCCN1CCC(NC(=O)c2ccc(CNC(=O)Nc3nc(C(C)(C)c4ccc(OC)cc4)cs3)cn2)CC1` [Example A115, 5-((3-(4-(2-(4-methoxyphenyl)propan-2-yl)thiazol-2-yl)ureido)methyl)-N-(1-propylpiperidin-4-yl)picolinamide] are 19 nM and 830 nM.
Turning to `COc1ccc(C(C)(C)c2csc(NC(=O)NCc3ccc(NC4CCN(C)CC4)nc3)n2)cc1` [Example A019, 1-(4-(2-(4-methoxyphenyl)propan-2-yl)thiazol-2-yl)-3-((6-((1-methylpiperidin-4-yl)amino)pyridin-3-yl)methyl)urea], the half-maximal inhibitory concentration (IC50) at ALPK1 stood at 32 nM; in assay [1] (Homo sapiens, HEK293), 1290 nM.
As to `C#C[C@](C)(c1ccc(Cl)cc1)c1csc(NC(=O)NC(CO)CO)n1` (stereo in doubt) [Example A297, 1-(4-(2-(4-chlorophenyl)but-3-yn-2-yl)thiazol-2-yl)-3-(1,3-dihydroxypropan-2-yl)urea], the IC50 was determined as 935 nM against ALPK1 and 4390 nM in assay [1] (Homo sapiens, HEK293).
On the same counts, the results for `CCNC(=O)Nc1nc(C(C)(C)c2ccc(Br)cc2)cs1` [Example A241, 1-(4-(2-(4-bromophenyl)propan-2-yl)thiazol-2-yl)-3-ethylurea] are 98 nM and 3410 nM.
In the case of `C#C[C@@](C)(c1ccc(Br)cc1)c1csc(NC(=O)NCC(O)CO)n1` (stereo in doubt) [Example A278, 1-(4-(2-(4-bromophenyl)but-3-yn-2-yl)thiazol-2-yl)-3-(2,3-dihydroxypropyl)urea], the IC50 against ALPK1 was found to be 624 nM; in assay [1] (Homo sapiens, HEK293), 520 nM.
On the same counts, the results for `C#C[C@](C)(c1ccc(Cl)cc1)c1csc(NC(=O)NCC2(O)CNC2)n1` (stereo in doubt) [Example A286, 1-(4-(2-(4-chlorophenyl)but-3-yn-2-yl)thiazol-2-yl)-3-((3-hydroxyazetidin-3-yl)methyl)urea] are 495 nM and 15400 nM.
For `COc1ccc(C(C)(C)c2csc(NC(=O)NCCCS(=O)(=O)N3CCC(N)C3)n2)cc1` (stereo not drawn) [Example A229, 1-(3-((3-aminopyrrolidin-1-yl)sulfonyl)propyl)-3-(4-(2-(4-methoxyphenyl)propan-2-yl)thiazol-2-yl)urea], the half-inhibitory concentration (IC50) on ALPK1 came out at 169 nM; in assay [1] (Homo sapiens, HEK293), 2270 nM.
On the same counts, the results for `CC(C)(c1ccc(Br)cc1)c1csc(NC(=O)NCc2ccc(N3CCNCC3)c(Cl)c2)n1` [Example A219, 1-(4-(2-(4-bromophenyl)propan-2-yl)thiazol-2-yl)-3-(3-chloro-4-(piperazin-1-yl)benzyl)urea] are 46 nM and 2730 nM.
On the same counts, the results for `CNS(=O)(=O)[C@H]1C[C@@H](CNC(=O)Nc2nc(C(C)(C)c3ccc(OC)cc3)cs2)C1` [Example A149, rac-(1s,3s)-3-((3-(4-(2-(4-methoxyphenyl)propan-2-yl)thiazol-2-yl)ureido)methyl)-N-methylcyclobutane-1-sulfonamide] are 155 nM and 9400 nM.
On the same counts, the results for `[2H]c1sc(NC(=O)NCCO)nc1[C@](C)(C#C)c1ccc(Cl)cc1` [Example A300, 1-(4-(2-(4-chlorophenyl)but-3-yn-2-yl)thiazol-2-yl)-3-(2-hydroxyethyl)urea] are 341 nM and 3010 nM.
On to `COc1ncc(CNC(=O)Nc2nc(C(C)(C)c3ccc(Br)cc3)cs2)cn1` [Example A080, 1-(4-(2-(4-bromophenyl)propan-2-yl)thiazol-2-yl)-3-((2-methoxypyrimidin-5-yl)methyl)urea], for which the IC50 at ALPK1 turned out to be 172 nM; in assay [1] (Homo sapiens, HEK293), 13300 nM.
On the same counts, the results for `C#C[C@@](C)(c1ccc(Cl)cc1)c1csc(NC(=O)NC(CO)CO)n1` (stereo in doubt) [Example A298, 1-(4-(2-(4-chlorophenyl)but-3-yn-2-yl)thiazol-2-yl)-3-(1,3-dihydroxypropan-2-yl)urea] are 246 nM and 1150 nM.
On the same counts, the results for `CC(C)(c1ccc(Br)cc1)c1csc(NC(=O)NCc2ccc(N3CCC(N)CC3)cc2)n1` [Example A204, 1-(4-(4-aminopiperidin-1-yl)benzyl)-3-(4-(2-(4-bromophenyl)propan-2-yl)thiazol-2-yl)urea] are 9 nM and 1890 nM.
On the same counts, the results for `CC(C)(c1ccc(Br)cc1)c1csc(NC(=O)NCc2cccc(N3CCNCC3)n2)n1` [Example A182, 1-(4-(2-(4-bromophenyl)propan-2-yl)thiazol-2-yl)-3-((6-(piperazin-1-yl)pyridin-2-yl)methyl)urea] are 163 nM and 4300 nM.
In the case of `C#C[C@@](C)(c1ccc(Cl)cc1)c1csc(NC(=O)NCC2(O)CNC2)n1` (stereo in doubt) [Example A287, 1-(4-(2-(4-chlorophenyl)but-3-yn-2-yl)thiazol-2-yl)-3-((3-hydroxyazetidin-3-yl)methyl)urea], the IC50 against ALPK1 turned out to be 130 nM; in assay [1] (Homo sapiens, HEK293) it was 4400 nM.
Take `COc1ccc(C(C)(C)c2csc(NC(=O)N3CC(c4ccc(N5CCNCC5)cc4)C3)n2)cc1` [Example A233, N-(4-(2-(4-methoxyphenyl)propan-2-yl)thiazol-2-yl)-3-(4-(piperazin-1-yl)phenyl)azetidine-1-carboxamide]: the IC50 against ALPK1 was determined as 43 nM; in assay [1] (Homo sapiens, HEK293) it was 330 nM.
On the same counts, the results for `CCOc1ccc(C(C)(C)c2csc(NC(=O)NCc3cnc(N4CCNCC4)nc3)n2)cc1` [Example A087, 1-(4-(2-(4-ethoxyphenyl)propan-2-yl)thiazol-2-yl)-3-((2-(piperazin-1-yl)pyrimidin-5-yl)methyl)urea] are 89 nM and 1740 nM.
For the molecule `CC(C)(c1ccc(Br)cc1)c1csc(NC(=O)NCCN2CCNCC2)n1` [Example A177, 1-(4-(2-(4-bromophenyl)propan-2-yl)thiazol-2-yl)-3-(2-(piperazin-1-yl)ethyl)urea], the concentration for half-maximal inhibition (IC50) against ALPK1 came out at 249 nM; in assay [1] (Homo sapiens, HEK293), 1660 nM.
On the same counts, the results for `CN1CCC(NC(=O)C2CCC(CNC(=O)Nc3nc(C(C)(C)c4ccc(Br)cc4)cs3)CC2)CC1` (stereo not drawn) [Example A100, 4-((3-(4-(2-(4-bromophenyl)propan-2-yl)thiazol-2-yl)ureido)methyl)-N-(1-methylpiperidin-4-yl)cyclohexane-1-carboxamide] are 72 nM and 1370 nM.
On the same counts, the results for `C#CC(C)(c1ccc(OC)cc1)c1csc(NC(N)=O)n1` (stereo not drawn) [Example A171, 1-(4-(2-(4-methoxyphenyl)but-3-yn-2-yl)thiazol-2-yl)urea] are 16 nM and 730 nM.
